Data taken from patent US9375000B2, “Pesticidal arylpyrrolidines” (Bayer Intellectual Property GmbH, priority 2011, dated 2016).
Several values for one entry are separate records, joined by “and”; a condition that tells them apart may be missing. Equal values may be shown once.

Key:
Format in all cases: in vivo
[1] = system: Larvae of Spodoptera litura; test: Larvae of Spodoptera litura, method using artificial feeds; settings: artificial feed, after 7 days
Outline: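 Compound formulated in dimethylformamide with polyoxyethylene alkyl phenyl ether emulsifier, water-diluted and poured onto artificial diet. Five 3rd-instar Spodoptera litura larvae per cup, held at 25° C and 50-60% humidity. Mortality after 7 days expressed as pesticidal ratio.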

[2] = system: Two-Spotted Spider Mite (Tetranychus urticae); test: Two-spotted spider mite (Tetranychus urticae) spray test on kidney bean; settings: after 7 days
Outline: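 Kidney bean plants at the two-leaf stage carried 50-100 adult mites and were sprayed one day later with compound in DMF/polyoxyethylene alkyl phenyl ether diluted in water. Ammonium salt and penetration enhancer at 1000 ppm were added if needed. Acaricidal activity (% mites killed) was scored after 7 days in a greenhouse.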

[3] = system: Thrips palmi; test: Thrips palmi spray test (THRIPL); settings: after 6 days
Outline: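 Cucumber seedlings sprayed with compound formulated in DMF/polyoxyethylene alkyl phenyl ether and diluted in water, ammonium salt ± penetration enhancer at 1000 ppm added if needed. About 100 T. palmi eggs attached, plants held caged at 100% humidity, 23 °C. Percent activity scored from feeding damage after 6 days, 100 = no damage, 0 = as untreated.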

[4] = system: Cucurbit Leaf Beetle (Aulacophora femoralis); test: Cucurbit leaf beetle (Aulacophora femoralis) cucumber leaf dip test; settings: after 7 days
Outline: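 Cucumber leaves dipped in compound formulated with DMF and polyoxyethylene alkyl phenyl ether, diluted in water, with ammonium salt or ammonium salt plus penetration enhancer at 1000 ppm added if necessary; dried leaves placed on sterilized soil with five second-instar larvae. Kept at 25° C; larval mortality counted after 7 days.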

[5] = system: adult engorged female Boophilus microplus ticks; test: Test against Boophilus microplus (dip); settings: dip, after 7 days
Description: (§1) Solvent: dimethyl sulfoxide
To produce a suitable preparation of active compound, 10 mg of active compound are dissolved in 0.5 ml solvent, and the concentrate is diluted with water to the desired concentration. Eight to ten adult engorged female Boophilus microplus ticks are placed in perforated plastic beakers and immersed in aqueous compound solution for one minute. Ticks are transferred to a filter paper in a plastic tray. Egg deposition of fertile eggs is monitored after. After 7 days mortality in % is determined. 100% means that all the ticks have been killed; 0% means that none of the ticks have been killed.

[6] = system: Tobacco Cutworm (Spodoptera litura) Larvae; test: Tobacco cutworm (Spodoptera litura) larvae, sweet potato leaf dip test; settings: dead larvae after 7 days
Description: (§2) Unless not mentioned otherwise, the test solutions were prepared as follows:
(§3) Solvent: 3 parts by weight Dimethylformamide
(§4) Emulsifier: 1 part by weight Polyoxyethylene alkyl phenyl ether
(§5) In order to make an appropriate formulation of an active compound, 1 part by weight of the active compound is mixed with the above mentioned amount of solvent and emulsifier and the mixture is diluted with water to a prescribed concentration. Ammonium salt or ammonium salt and penetration enhancer in a dosage of 1000 ppm are added to the desired concentration if necessary.
Leaves of sweet potato were immersed in the test solution at the appropriate concentration, and the leaves were dried in air. The leaves were then placed in a petri dish having a diameter of 9 cm, and ten Spodoptera litura at third instar larvae were released therein. The petri dishes were placed in a temperature-controlled chamber at 25° C. After 2 days and 4 days more sweet potato leaves were added. After 7 days, the number of dead larvae was counted to calculate the insecticidal activity. An insecticidal activity of 100% means that all larvae were killed, whereas an insecticidal activity of 0% means that no larva was killed. In the current test, the results of two petri dishes for each treatment were averaged.

[7] = system: Musca domestica; test: Test against Musca domestica; settings: application rate 100 ppm; after 2 days
Description: as §1
To produce a suitable preparation of active compound, 10 mg of active compound are dissolved in 0.5 ml solvent, and the concentrate is diluted with water to the desired concentration. Prior to the assay, a piece of kitchen sponge is soaked with a mixture of sugar and compound solution and placed into a container. 10 adults (Musca domestica) are placed into the container and closed with a perforated lid. After 2 days mortality in % is determined. 100% means that all the flies have been killed; 0% means that none of the flies have been killed.

[8] = system: green peach aphids (Myzus persicae); test: Myzus persicae spray test (MYZUPE); settings: after 6 days
Description: as §2, §3, §4, §5
1 day before treatment, green peach aphids (Myzus persicae) are inoculated onto the testing plants, about 50 heads per leaf, 100 for 1 pot. A paper label is placed on each pot. Solutions are sprayed directly onto both insects and plants. After drying, the pots are placed in the greenhouse at 20° C.-25° C. After 6 days mortality in % is determined. An insecticidal activity of 100% means that all aphids were killed, whereas an insecticidal activity of 0% means that no aphid was killed.

[9] = system: Ctenocephalides felis; test: Test against Ctenocephalides felis (CTECFE), blood feeding; settings: application rate 100 ppm in cattle blood; after 2 days
Description: as §1
To produce a suitable preparation of active compound, 10 mg of active compound are dissolved in 0.5 ml solvent, and the concentrate is diluted with cattle blood to the desired concentration. Approximately 20 adult unfed (Ctenocepahlides felis) are placed in flea chambers. The blood chamber, sealed with parafilm on the bottom, are filled with cattle blood supplied with compound solution and placed on top of the flea chamber, so that the fleas are able to suck the blood. The blood chamber is heated to 37° C. whereas the flea chamber is kept at room temperature.
After 2 days mortality in % is determined. 100% means that all the fleas have been killed; 0% means that none of the fleas have been killed.

[10] = active compound concentration 4 ppm
[11] = active compound concentration 20 ppm
[12] = active compound concentration 100 ppm

SMILES: CCC(=O)NCc1ccc(N2CCC(c3cc(C(F)(F)F)cc(C(F)(F)F)c3)(C(F)(F)F)C2O)cc1C(F)(F)F (mixture of isomers) [A1-57]
- insecticidal activity (pesticidal ratio) [1, 10]: 100%
- acaricidal activity [2, 10]: 100%
- insecticidal activity (by feeding damage degree) [3, 11]: 100%
- insecticidal activity [4, 10]: 100%
- activity (mortality) ([5]; application rate 100 ppm): 90%

SMILES: O=C(NCc1ccc(N2CCC(c3cc(Cl)cc(Cl)c3)(C(F)(F)F)C2O)cc1Br)C1CC1 (mixture of isomers) [A1-110]
- insecticidal activity [6, 10]: 100%
- acaricidal activity [2, 10]: 100%
- insecticidal activity (by feeding damage degree) [3, 11]: 98%
- insecticidal activity [4, 11]: 100%
- activity (mortality) ([5]; application rate 100 ppm): 90%

SMILES: O=C(NCc1ccc(N2CCC(c3cc(Cl)c(Cl)c(Cl)c3)(C(F)(F)F)C2O)cc1I)C1CC1 (mixture of isomers) [A1-176]
- insecticidal activity (pesticidal ratio) [1, 10]: 100%
- insecticidal activity (pesticidal ratio) [1, 11]: 100%
- acaricidal activity [2, 10]: 100%
- acaricidal activity [2, 11]: 100%
- insecticidal activity (by feeding damage degree) [3, 11]: 90%
- activity (mortality) [7]: 80%
- insecticidal activity [4, 11]: 100%

SMILES: CS(=O)(=O)CC(=O)NCc1ccc(N2CCC(c3cc(C(F)(F)F)cc(C(F)(F)F)c3)(C(F)(F)F)C2O)nc1Br (mixture of isomers) [A3-165]
- insecticidal activity (pesticidal ratio) [1, 10]: 100%
- insecticidal activity (pesticidal ratio) [1, 11]: 100%
- acaricidal activity [2, 10]: 90%
- insecticidal activity [4, 10]: 100%
- insecticidal activity [4, 11]: 100%
- activity (mortality) ([5]; application rate 100 ppm): 90%

SMILES: O=C(NCc1ccc(N2CCC(c3cc(F)cc(Cl)c3)(C(F)(F)F)C2O)nc1C(F)(F)F)C1CC1 (mixture of isomers) [A3-170]
- insecticidal activity [6, 10]: 100%
- acaricidal activity [2, 11]: 100%
- activity (mortality) [7]: 90%
- insecticidal activity [4, 11]: 100%

SMILES: O=C(NCc1ccc(N2CCC(c3cc(Cl)c(F)c(Cl)c3F)(C(F)(F)F)C2O)nc1C(F)(F)F)C1CC1 (mixture of isomers) [A3-214]
- insecticidal activity (pesticidal ratio) [1, 10]: 100%
- insecticidal activity (pesticidal ratio) [1, 11]: 100%
- insecticidal activity (mortality) [8, 11]: 100%
- acaricidal activity [2, 10]: 100%
- acaricidal activity [2, 11]: 100%
- insecticidal activity (by feeding damage degree) [3, 10]: 90%
- insecticidal activity [4, 10]: 100%
- insecticidal activity [4, 11]: 100%

SMILES: O=C(CC(F)(F)F)NCc1ccc(N2CCC(c3cc(Cl)c(Cl)c(Cl)c3)(C(F)(F)F)C2O)cc1Cl (stereo not shown) [A1-18]
- insecticidal activity (pesticidal ratio) [1, 10]: 100%
- insecticidal activity (mortality) [8, 12]: 100%
- acaricidal activity [2, 10]: 100%
- insecticidal activity (by feeding damage degree) [3, 12]: 90%
- insecticidal activity [4, 10]: 100%

SMILES: C[S+]([O-])CC(=O)NCc1ccc(N2CCC(c3cc(C(F)(F)F)cc(C(F)(F)F)c3)(C(F)(F)F)C2O)cc1Cl (stereo not shown) [A1-32]
- insecticidal activity (pesticidal ratio) [1, 11]: 100%
- acaricidal activity [2, 11]: 100%
- insecticidal activity [4, 11]: 100%
- activity (mortality) ([5]; application rate 20 ppm): 95%

SMILES: O=C(NCc1ccc(N2CCC(c3cc(Br)cc(Br)c3)(C(F)(F)F)C2O)cc1C(F)(F)F)C1CC1 (stereo not shown) [A1-253]
- insecticidal activity (pesticidal ratio) [1, 10]: 100%
- insecticidal activity (pesticidal ratio) [1, 11]: 100%
- acaricidal activity [2, 10]: 100%
- acaricidal activity [2, 11]: 100%
- insecticidal activity (by feeding damage degree) [3, 11]: 90%
- activity (mortality) [7]: 90%
- insecticidal activity [4, 10]: 100%
- insecticidal activity [4, 11]: 100%

SMILES: CC(=O)NCc1ccc(N2CCC(c3cc(Cl)c(F)c(Cl)c3F)(C(F)(F)F)C2O)cc1C(F)(F)F (stereo not shown) [A1-282]
- insecticidal activity [6, 10]: 100%
- acaricidal activity [2, 10]: 100%
- insecticidal activity [4, 11]: 100%
- activity (mortality) ([5]; application rate 100 ppm): 95%

SMILES: CCCC(=O)NCc1ccc(N2CCC(c3cc(Cl)c(Cl)c(Cl)c3)(C(F)(F)F)C2O)nc1C(F)(F)F (stereo not shown) [A3-14]
- insecticidal activity (pesticidal ratio) [1, 10]: 100%
- insecticidal activity (pesticidal ratio) [1, 11]: 100%
- acaricidal activity [2, 10]: 100%
- acaricidal activity [2, 11]: 100%
- insecticidal activity [4, 10]: 100%
- insecticidal activity [4, 11]: 100%
- activity (mortality) [9]: 95%

SMILES: O=C(NCc1ccc(N2CCC(c3cc(Cl)c(Cl)c(Cl)c3)(C(F)(F)F)C2O)nc1Cl)C1CC1 (stereo not shown) [A3-104]
- insecticidal activity [6, 10]: 100%
- insecticidal activity (mortality) [8, 11]: 100%
- acaricidal activity [2, 10]: 100%
- insecticidal activity (by feeding damage degree) [3, 11]: 98%
- insecticidal activity [4, 11]: 100%

SMILES: CCC(=O)NCc1ccc(N2CCC(c3cc(Cl)c(Cl)c(Cl)c3)(C(F)(F)F)C2O)nc1Br (stereo not shown) [A3-112]
- insecticidal activity (pesticidal ratio) [1, 11]: 100%
- acaricidal activity [2, 11]: 100%
- activity (mortality) [7]: 90%
- insecticidal activity [4, 11]: 100%

SMILES: O=C(NCc1cc(F)c(N2CCC(c3cc(C(F)(F)F)cc(C(F)(F)F)c3)(C(F)(F)F)C2O)nc1Cl)C1CC1 (stereo not shown) [A3-381]
- insecticidal activity (pesticidal ratio) [1, 11]: 100%
- insecticidal activity (mortality) [8, 12]: 98%
- insecticidal activity (by feeding damage degree) [3, 12]: 98%
- insecticidal activity [4, 10]: 100%
- insecticidal activity [4, 11]: 100%
- activity (mortality) ([5]; application rate 100 ppm): 80%

SMILES: CCC(=O)NCc1cnc(N2CCC(c3cc(Cl)c(Cl)c(Cl)c3)(C(F)(F)F)C2O)nc1C(F)(F)F (stereo not shown) [A4-13]
- insecticidal activity (pesticidal ratio) [1, 11]: 100%
- insecticidal activity (mortality) [8, 12]: 90%
- acaricidal activity [2, 11]: 100%
- insecticidal activity (by feeding damage degree) [3, 11]: 98%
- insecticidal activity (by feeding damage degree) [3, 12]: 98%

SMILES: CCC(=O)NCc1cnc(N2CCC(c3cc(Cl)c(F)c(Cl)c3)(C(F)(F)F)C2O)nc1C(F)(F)F (stereo not shown) [A4-101]
- insecticidal activity [6, 10]: 100%
- insecticidal activity (mortality) [8, 11]: 100%
- acaricidal activity [2, 10]: 100%
- insecticidal activity (by feeding damage degree) [3, 11]: 98%
- insecticidal activity [4, 11]: 100%

SMILES: CCC(=O)NCc1cnc(N2CCC(c3cc(Cl)c(Cl)c(Cl)c3)(C(F)(F)F)C2O)cc1C(F)(F)F (stereo not shown) [A5-13]
- insecticidal activity [6, 10]: 100%
- insecticidal activity (pesticidal ratio) [1, 10]: 100%
- acaricidal activity [2, 11]: 100%
- acaricidal activity [2, 12]: 98%
- insecticidal activity (by feeding damage degree) [3, 12]: 100% and 90%
- insecticidal activity [4, 11]: 100%

SMILES: O=C(CC(F)(F)F)NCc1cnc(N2CCC(c3cc(Cl)c(Cl)c(Cl)c3)(C(F)(F)F)C2O)cc1C(F)(F)F (stereo not shown) [A5-18]
- insecticidal activity [6, 10]: 100%
- acaricidal activity [2, 11]: 100%
- insecticidal activity (by feeding damage degree) [3, 12]: 100%
- insecticidal activity [4, 11]: 100%
- activity (mortality) [9]: 90%

SMILES: CS(=O)(=O)CC(=O)NCc1cnc(N2CCC(c3cc(Cl)c(Cl)c(Cl)c3)(C(F)(F)F)C2O)cc1C(F)(F)F (stereo not shown) [A5-22]
- insecticidal activity [6, 10]: 100%
- acaricidal activity [2, 11]: 100%
- insecticidal activity (by feeding damage degree) [3, 12]: 98%
- insecticidal activity [4, 11]: 100%

SMILES: O=C(NCc1ccc(N2CC(c3cc(C(F)(F)F)cc(C(F)(F)F)c3)(C(F)(F)F)CC2=O)nc1C(F)(F)F)C1CC1 (stereo not shown) [C3-27]
- insecticidal activity [6, 11]: 100%
- insecticidal activity (pesticidal ratio) [1, 11]: 100%
- activity (mortality) [7]: 90%
